# Experimental data as given in patent US8217029B2, “Oxazolidinone antibiotics” (Actelion Pharmaceuticals Ltd, priority 2007, dated 2012).
# Tested on: S aureus A798
# Assay: Minimal inhibitory concentration (MIC), microdilution method in cation-adjusted Mueller-Hinton Broth following NCCLS guidelines
# Assay type: cell-based
# Conditions: pH of test medium 7.2-7.3
# Method in brief: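 MICs (mg/l) came from NCCLS-guided microdilution, using cation-adjusted Mueller-Hinton medium adjusted to pH 7.2-7.3.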
SMILES,MIC,MIC S aureus A798
"CCc1ccc(N2C[C@@H](CN3CCN(c4ccnc5ccc(OC)nc45)CC3)OC2=O)cc1 [Example 26, (R)-3-(4-Ethyl-phenyl)-5-[4-(6-methoxy-[1,5]naphthyridin-4-yl)-piperazin-1-ylmethyl]-oxazolidin-2-one]",≤ 0.031 µg/mL,
"COc1ccc2nccc(N3CCN(CC4CN(c5cc6c(nn5)OCCO6)C(=O)O4)CC3)c2n1 (racemic) [Example 110, (RS)-3-(6,7-Dihydro-[1,4]dioxino[2,3-c]pyridazin-3-yl)-5-[4-(6-methoxy-[1,5]naphthyridin-4-yl)-piperazin-1-ylmethyl]-oxazolidin-2-one]",8 µg/mL,
"COc1ccc2nccc(N3CCC(O)(CC4CN(c5ccc6c(c5)OCCO6)C(=O)O4)CC3)c2n1 (racemic) [Example 5, (RS)-3-(2,3-Dihydro-benzo[1,4]dioxin-6-yl)-5-[4-hydroxy-1-(6-methoxy-[1,5]naphthyridin-4-yl)-piperidin-4-ylmethyl]-oxazolidin-2-one]",≤ 0.031 µg/mL,
"COc1ccc2nccc(N3CCN(C[C@@H]4CN(c5ccc(OC)c(OC)c5)C(=O)O4)CC3)c2n1 [Example 14, (R)-3-(3,4-Dimethoxy-phenyl)-5-[4-(6-methoxy-[1,5]naphthyridin-4-yl)-piperazin-1-ylmethyl]-oxazolidin-2-one]",2 µg/mL,
"COc1ccc2nccc(N3CC[C@H](NC[C@@H]4CN(c5ccc6c(c5)NC(=O)CS6)C(=O)O4)C3)c2n1 [Example 70, 6-((R)-5-{[(S)-1-(6-Methoxy-[1,5]naphthyridin-4-yl)-pyrrolidin-3-ylamino]-methyl}-2-oxo-oxazolidin-3-yl)-4H-benzo[1,4]thiazin-3-one]",≤ 0.031 µg/mL,
"COc1ccc2nccc(N3CCCN(C[C@@H]4CN(c5ccc(C)c(F)c5)C(=O)O4)CC3)c2n1 [Example 108, (R)-3-(3-Fluoro-4-methyl-phenyl)-5-[4-(6-methoxy-[1,5]naphthyridin-4-yl)-[1,4]diazepan-1-ylmethyl]-oxazolidin-2-one]",0.25 µg/mL,
"COc1ccc2nccc(N3CCN(C[C@@H]4CN(c5ccc(F)cc5)C(=O)O4)CC3)c2n1 [Example 15, (R)-3-(4-Fluoro-phenyl)-5-[4-(6-methoxy-[1,5]naphthyridin-4-yl)-piperazin-1-ylmethyl]-oxazolidin-2-one]",0.25 µg/mL,
"COc1ccc2nccc(N3CC[C@H](NC[C@@H]4CN(c5ccc(C)c(F)c5)C(=O)O4)C3)c2n1 [Example 67, (R)-3-(3-Fluoro-4-methyl-phenyl)-5-{[(S)-1-(6-methoxy-[1,5]naphthyridin-4-yl)-pyrrolidin-3-ylamino]-methyl}-oxazolidin-2-one]",0.063 µg/mL,
"COc1ccc2nccc(N3CCN(C[C@@H]4CN(c5ccc(F)c(C)c5)C(=O)O4)CC3)c2n1 [Example 30, (R)-3-(4-Fluoro-3-methyl-phenyl)-5-[4-(6-methoxy-[1,5]naphthyridin-4-yl)-piperazin-1-ylmethyl]-oxazolidin-2-one]",0.125 µg/mL,
"COc1ccc2nccc(N3CCN(C[C@@H]4CN(c5ccc(C)c(C)c5)C(=O)O4)CC3)c2n1 [Example 27, (R)-3-(3,4-Dimethyl-phenyl)-5-[4-(6-methoxy-[1,5]naphthyridin-4-yl)-piperazin-1-ylmethyl]-oxazolidin-2-one]",≤ 0.031 µg/mL,
"COc1ccc2ncc(F)c(N3CC(NC[C@@H]4CN(c5ccc6c(c5)NC(=O)CO6)C(=O)O4)C3)c2n1 [Example 45, 6-((R)-5-{[1-(3-Fluoro-6-methoxy-[1,5]naphthyridin-4-yl)-azetidin-3-ylamino]-methyl}-2-oxo-oxazolidin-3-yl)-4H-benzo[1,4]oxazin-3-one]",≤ 0.031 µg/mL,
"COc1ccc2ncnc(N3CCN(CC4CN(c5ccc6c(c5)NC(=O)CS6)C(=O)O4)CC3)c2c1 (racemic) [Example 7, (RS)-6-{5-[4-(6-Methoxy-quinazolin-4-yl)-piperazin-1-ylmethyl]-2-oxo-oxazolidin-3-yl}-4H-benzo[1,4]thiazin-3-one]",≤ 0.031 µg/mL,
"COc1ccc2nccc(N3CCN(C[C@@H]4CN(c5ccc6c(c5)NC(=O)CS6)C(=O)O4)CC3=O)c2n1 [Example 101, 6-{(R)-5-[4-(6-Methoxy-[1,5]naphthyridin-4-yl)-3-oxo-piperazin-1-ylmethyl]-2-oxo-oxazolidin-3-yl}-4H-benzo[1,4]thiazin-3-one]",0.5 µg/mL,
"COc1ccc2nccc(N3CC[C@@H]4CN(C[C@@H]5CN(c6ccc7c(c6)NC(=O)CS7)C(=O)O5)C[C@@H]43)c2n1 (relative stereo) [Example 91, 6-{{(R)-5-[(3aR*,6aR*)-1-(6-Methoxy-[1,5]naphthyridin-4-yl)-hexahydro-pyrrolo[3,4-b]pyrrol-5-yl]-methyl}-2-oxo-oxazolidin-3-yl}-4H-benzo[1,4]thiazin-3-one]",,<=0.031 mg/l
"COc1ccc2nccc(N3CC(CNC[C@H]4CN(c5ccc6c(c5)OCCO6)C(=O)O4)C3)c2n1 [Example 1, (S)-3-(2,3-Dihydro-benzo[1,4]dioxin-6-yl)-5-({[1-(6-methoxy-[1,5]naphthyridin-4-yl)-azetidin-3-ylmethyl]-amino}-methyl)-oxazolidin-2-one]",0.25 µg/mL,
"COc1ccc2nccc(N3CCN(C[C@@H]4CN(c5ccc6c(c5)OCCO6)C(=O)O4)CC3)c2n1 [Example 9, (R)-3-(2,3-Dihydro-benzo[1,4]dioxin-6-yl)-5-[4-(6-methoxy-[1,5]naphthyridin-4-yl)-piperazin-1-ylmethyl]-oxazolidin-2-one]",≤ 0.031 µg/mL,

# Now from value to compound:
MIC,MIC S aureus A798,SMILES
≤ 0.031 µg/mL,,"COc1ccc2nccc(N3CC(N(C)C[C@@H]4CN(c5ccc(C)c(C)c5)C(=O)O4)C3)c2n1 [Example 138, (R)-3-(3,4-Dimethyl-phenyl)-5-({[1-(6-methoxy-[1,5]naphthyridin-4-yl)-azetidin-3-yl]-methyl-amino}-methyl)-oxazolidin-2-one]"
0.063 µg/mL,,"N#Cc1ccc2nccc(N3CC[C@@H](NC[C@@H]4CN(c5ccc6c(c5)NC(=O)CS6)C(=O)O4)C3)c2c1 [Example 178, 4-((R)-3-{[(R)-2-oxo-3-(3-oxo-3,4-dihydro-2H-benzo[1,4]thiazin-6-yl)-oxazolidin-5-ylmethyl]-amino}-pyrrolidin-1-yl)-quinoline-6-carbonitrile]"
≤ 0.031 µg/mL,,"COc1ccc2nccc(N3CCN(CC4CN(c5ccc6c(n5)NC(=O)CO6)C(=O)O4)CC3)c2n1 (racemic) [Example 113, (RS)-6-{5-[4-(6-Methoxy-[1,5]naphthyridin-4-yl)-piperazin-1-ylmethyl]-2-oxo-oxazolidin-3-yl}-4H-pyrido[3,2-b][1,4]oxazin-3-one]"
0.25 µg/mL,,"COc1ccc2nccc(N3C[C@H](NC[C@@H]4CN(c5ccc6c(c5)NC(=O)CO6)C(=O)O4)[C@@H](OC)C3)c2n1 [Example 181, 6-((R)-5-{[(3S,4S)-4-Methoxy-1-(6-methoxy-[1,5]naphthyridin-4-yl)-pyrrolidin-3-ylamino]-methyl}-2-oxo-oxazolidin-3-yl)-4H-benzo[1,4]oxazin-3-one]"
≤ 0.031 µg/mL,,"COc1ccc2cccc(N3CC(CNC[C@@H]4CN(c5ccc6c(c5)NC(=O)CS6)C(=O)O4)C3)c2n1 [Example 162, 6-[(R)-5-({[1-(2-Methoxy-quinolin-8-yl)-azetidin-3-ylmethyl]-amino}-methyl)-2-oxo-oxazolidin-3-yl]-4H-benzo[1,4]thiazin-3-one]"
≤ 0.031 µg/mL,,"COc1ccc2nccc(N3CC(N(C)C[C@@H]4CN(c5ccc(Br)c(F)c5)C(=O)O4)C3)c2n1 [Example 141, (R)-3-(4-Bromo-3-fluoro-phenyl)-5-({[1-(6-methoxy-[1,5]naphthyridin-4-yl)-azetidin-3-yl]-methyl-amino}-methyl)-oxazolidin-2-one]"
0.5 µg/mL,,"COc1ccc2nccc(N3CCC(NC[C@@H]4CN(c5ccc(OC(F)F)cc5)C(=O)O4)CC3)c2n1 [Example 185, (R)-3-(4-Difluoromethoxy-phenyl)-5-{[1-(6-methoxy-[1,5]naphthyridin-4-yl)-piperidin-4-ylamino]-methyl}-oxazolidin-2-one]"
≤ 0.031 µg/mL,,"COc1ccc2ccc(F)c(N3CC(NC[C@@H]4CN(c5ccc6c(c5)NC(=O)CS6)C(=O)O4)C3)c2n1 [Example 159, 6-((R)-5-{[1-(7-Fluoro-2-methoxy-quinolin-8-yl)-azetidin-3-ylamino]-methyl}-2-oxo-oxazolidin-3-yl)-4H-benzo[1,4]thiazin-3-one]"
≤ 0.031 µg/mL,,"COc1ccc2nccc(N3CCC(NC[C@@H]4CN(c5ccc6c(c5)NC(=O)CO6)C(=O)O4)CC3)c2n1 [Example 120, 6-((R)-5-{[1-(6-Methoxy-[1,5]naphthyridin-4-yl)-piperidin-4-ylamino]-methyl}-2-oxo-oxazolidin-3-yl)-4H-benzo[1,4]oxazin-3-one]"
0.5 µg/mL,,"COc1ccc(N2C[C@@H](CN[C@H]3CCN(c4c(F)cnc5ccc(OC)nc45)C3)OC2=O)cc1 [Example 169, (R)-5-{[(S)-1-(3-Fluoro-6-methoxy-[1,5]naphthyridin-4-yl)-pyrrolidin-3-ylamino]-methyl}-3-(4-methoxy-phenyl)-oxazolidin-2-one]"
≤ 0.031 µg/mL,,"COc1ccc2ncc(F)c(N3CCC(NC[C@@H]4CN(c5ccc6c(c5)NC(=O)CO6)C(=O)O4)CC3)c2n1 [Example 123, 6-((R)-5-{[1-(3-Fluoro-6-methoxy-[1,5]naphthyridin-4-yl)-piperidin-4-ylamino]-methyl}-2-oxo-oxazolidin-3-yl)-4H-benzo[1,4]oxazin-3-one]"
≤ 0.031 µg/mL,,"COc1ccc2ncc(F)c(N3CC(N(C)C[C@@H]4CN(c5ccc6c(c5)NC(=O)CO6)C(=O)O4)C3)c2n1 [Example 127, 6-[(R)-5-({[1-(3-Fluoro-6-methoxy-[1,5]naphthyridin-4-yl)-azetidin-3-yl]-methyl-amino}-methyl)-2-oxo-oxazolidin-3-yl]-4H-benzo[1,4]oxazin-3-one]"
2 µg/mL,,"COc1ccc2nccc(N3CC(N(C)C[C@@H]4CN(c5ccccc5)C(=O)O4)C3)c2n1 [Example 133, (R)-5-({[1-(6-Methoxy-[1,5]naphthyridin-4-yl)-azetidin-3-yl]-methyl-amino}-methyl)-3-phenyl-oxazolidin-2-one]"
0.25 µg/mL,,"COc1ccc2nccc(N3CC(N(C)C[C@@H]4CN(c5cccc(N(C)C)c5)C(=O)O4)C3)c2n1 [Example 140, (R)-3-(3-Dimethylamino-phenyl)-5-({[1-(6-methoxy-[1,5]naphthyridin-4-yl)-azetidin-3-yl]-methyl-amino}-methyl)-oxazolidin-2-one]"
